This assay has as its system P388 leukemia ip, CD2F1 mice, survival T/C. The experiment in a line: NCI In Vivo Anticancer Drug Screen. Data for tumor model P388 Leukemia (intraperitoneal) in CD2F1 (CDF1) mice. The conditions noted are these: endpoint: median survival time, higher = longer survival. Summed up: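 Mice carrying the transplanted tumor received test compound or vehicle. Survival was recorded in each group, and the value is the treated-group measurement divided by that of the vehicle-treated control group.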

[1] abbreviates: dose: 50.0 mg/kg/injection, schedule: Q01DX009 (ip), vehicle: Klucel (hydroxypropylcellulose) (HPC).
Where [2] appears, read: dose: 100.0 mg/kg/injection, schedule: Q01DX009 (ip), vehicle: Klucel (hydroxypropylcellulose) (HPC).
The mark [3] stands for this setting: dose: 200.0 mg/kg/injection, schedule: Q01DX009 (ip), vehicle: Klucel (hydroxypropylcellulose) (HPC).
The mark [4] stands for this setting: dose: 50.0 mg/kg/injection, schedule: Q01DX009 (ip), vehicle: saline.
Where [5] appears, read: dose: 100.0 mg/kg/injection, schedule: Q01DX009 (ip), vehicle: saline.
[6] abbreviates: dose: 200.0 mg/kg/injection, schedule: Q01DX009 (ip), vehicle: saline.
Where [7] appears, read: dose: 100.0 mg/kg/injection, schedule: Q01DX009 (ip), vehicle: saline with Tween-80.
[8] abbreviates: dose: 25.0 mg/kg/injection, schedule: Q01DX009 (ip), vehicle: saline with Tween-80.
[9] abbreviates: dose: 50.0 mg/kg/injection, schedule: Q01DX009 (ip), vehicle: saline with Tween-80.
[10] abbreviates: dose: 50.0 mg/kg/injection, schedule: Q01DX005 (ip), vehicle: saline with Tween-80.
[11] abbreviates: dose: 100.0 mg/kg/injection, schedule: Q01DX005 (ip), vehicle: saline with Tween-80.
[12] abbreviates: dose: 200.0 mg/kg/injection, schedule: Q01DX005 (ip), vehicle: saline with Tween-80.
Where [13] appears, read: dose: 25.0 mg/kg/injection, schedule: Q01DX005 (ip), vehicle: Klucel (hydroxypropylcellulose) (HPC).
The mark [14] stands for this setting: dose: 50.0 mg/kg/injection, schedule: Q01DX005 (ip), vehicle: Klucel (hydroxypropylcellulose) (HPC).
[15] abbreviates: dose: 100.0 mg/kg/injection, schedule: Q01DX005 (ip), vehicle: Klucel (hydroxypropylcellulose) (HPC).

Drawing on PubChem BioAssay AID330 (DTP/NCI, 2004), this text covers T/C for 26 molecules.

Where “and” joins values, the source holds several entries; their conditions need not be identical. Equal values may be shown once. Toxic doses and inconclusive results are not listed.

As to `Fc1ccc(NC(=S)SCc2ccccc2)cc1`, the T/C by setting is: (dose: 50.0 mg/kg/injection, schedule: Q01DX009 (ip), vehicle: suspension in saline) 101 % of control; (dose: 100.0 mg/kg/injection, schedule: Q01DX009 (ip), vehicle: suspension in saline) 101 % of control; (dose: 200.0 mg/kg/injection, schedule: Q01DX009 (ip), vehicle: suspension in saline) 101 % of control.
On to `O=C1C(c2ccccc2)=C(c2ccccc2)C(=O)N1c1ccccn1`, for which the T/C by setting is: under setting [1], 94 % of control; under setting [2], 105 % of control; under setting [3], 103 % of control.
As to `O=S(=O)(O)c1ccc(CCCCCCl)cc1`, the T/C reads like this: (dose: 100.0 mg/kg/injection, schedule: Q04DX003 (ip), vehicle: saline) 100 % of control; (dose: 200.0 mg/kg/injection, schedule: Q04DX003 (ip), vehicle: saline) 95 % of control; (dose: 400.0 mg/kg/injection, schedule: Q04DX003 (ip), vehicle: saline) 86 % of control.
For `O=C(O)CCC(=O)c1ccc(Br)cc1`, the T/C is, setting by setting: (dose: 100.0 mg/kg/injection, schedule: Q04DX003 (ip), vehicle: saline with Tween-80) 109 % of control; (dose: 200.0 mg/kg/injection, schedule: Q04DX003 (ip), vehicle: saline with Tween-80) 104 % of control; (dose: 400.0 mg/kg/injection, schedule: Q04DX003 (ip), vehicle: saline with Tween-80) 109 % of control.
Consider `C[As+](C)(C)CC(=O)O`, for which the T/C is, setting by setting: under setting [4], 99 % of control; under setting [5], 99 % of control; under setting [6], 101 % of control.
Take `CCCCC1C=CC2C(N1)N2C#N` (configuration not stated): the T/C (dose: 6.25 mg/kg/injection, schedule: Q01DX009 (ip), vehicle: saline) is 102 % of control; the T/C (dose: 12.5 mg/kg/injection, schedule: Q01DX009 (ip), vehicle: saline) was 99 % of control; the T/C (dose: 25.0 mg/kg/injection, schedule: Q01DX009 (ip), vehicle: saline) was 102 % of control; the T/C under setting [7] was 86 % of control.
For `CN1c2ccccc2S(=O)(=O)n2nnnc21`, the T/C (dose: 100.0 mg/kg/injection, schedule: Q01DX001 (ip), vehicle: saline with Tween-80) was 101 % of control; the T/C (dose: 200.0 mg/kg/injection, schedule: Q01DX001 (ip), vehicle: saline with Tween-80) was 101 % of control; the T/C (dose: 400.0 mg/kg/injection, schedule: Q01DX001 (ip), vehicle: saline with Tween-80) is 97 % of control.
Regarding `NC(=O)C(=Nc1ccccc1)Nc1ccccc1`, the T/C reads like this: (dose: 100.0 mg/kg/injection, schedule: Q01DX001 (ip), vehicle: saline) 115 % of control; (dose: 200.0 mg/kg/injection, schedule: Q01DX001 (ip), vehicle: saline) 107 % of control; (dose: 400.0 mg/kg/injection, schedule: Q01DX001 (ip), vehicle: saline) 104 % of control.
Turning to `O=C(CC1(O)C(=O)Nc2ccccc21)c1ccccn1` (configuration not stated), the T/C under setting [1] is 102 % of control, the T/C under setting [2] is 97 % of control and the T/C under setting [3] is 100 % of control.
With `CCOc1n[n+]([O-])c(Cl)cc1[N+](=O)[O-]`, the T/C reads like this: under setting [8], 103 % of control; under setting [9], 102 % of control; under setting [7], 100 % of control.
For `CC12CCc3ccccc3C1=Nc1ccccc12` (configuration not stated), the T/C runs as follows: under setting [10], 103 % of control; under setting [11], 104 % of control; under setting [12], 91 % of control.
`Cc1nn(C)c(NC(=O)c2ccccc2O)c1SC#N`: the T/C by setting is: (dose: 6.25 mg/kg/injection, schedule: Q01DX005 (ip), vehicle: saline with Tween-80) 93 % of control; (dose: 12.5 mg/kg/injection, schedule: Q01DX005 (ip), vehicle: saline with Tween-80) 93 % of control; (dose: 25.0 mg/kg/injection, schedule: Q01DX005 (ip), vehicle: saline with Tween-80) 93 % of control.
Regarding `Cc1ccc(-c2cc3cc4c(cc3[nH]2)Sc2ccccc2O4)cc1`, the T/C reads like this: (dose: 100.0 mg/kg/injection, schedule: Q01DX001 (ip), vehicle: Klucel (hydroxypropylcellulose) (HPC)) 98 % of control; (dose: 200.0 mg/kg/injection, schedule: Q01DX001 (ip), vehicle: Klucel (hydroxypropylcellulose) (HPC)) 89 % of control.
`COc1cc(/C=C/c2ccncc2)ccc1OC(C)=O`: the T/C under setting [13] was 100 % of control; the T/C under setting [14] was 100 % of control; the T/C under setting [15] is 101 % of control; the T/C (dose: 200.0 mg/kg/injection, schedule: Q01DX005 (ip), vehicle: Klucel (hydroxypropylcellulose) (HPC)) was 100 % of control.
In the case of `COc1cc(CN2CCN(CCO)CC2)c(O)c(CN2CCN(CCO)CC2)c1`, the T/C runs as follows: (dose: 60.0 mg/kg/injection, schedule: Q01DX005 (ip), vehicle: saline) 108 % of control; (dose: 120.0 mg/kg/injection, schedule: Q01DX005 (ip), vehicle: saline) 108 % of control; (dose: 240.0 mg/kg/injection, schedule: Q01DX005 (ip), vehicle: saline) 102 % of control.
For the molecule `CN(C)c1ccc(C=Nc2ccc3c4c(cccc24)-c2ccccc2-3)cc1`, the T/C was 93 % of control under setting [9]; 86 % of control under setting [7]; 89 % of control (dose: 200.0 mg/kg/injection, schedule: Q01DX009 (ip), vehicle: saline with Tween-80).
Consider `O=C(Nc1nnc(C(F)(F)F)s1)c1c(F)cccc1F`, for which the T/C is 104 % of control (dose: 12.5 mg/kg/injection, schedule: Q01DX009 (ip), vehicle: saline with Tween-80); 104 % of control under setting [8]; 99 % of control under setting [9].
Turning to `Cc1cccc(Oc2ccc(C(F)(F)F)cc2[N+](=O)[O-])c1C`, the T/C is, setting by setting: under setting [4], 99 % of control; under setting [5], 99 % of control.
Regarding `COCCC(=O)NC1CCCC[CH]1[Hg][Cl]` (configuration not stated), the T/C (dose: 25.0 mg/kg/injection, schedule: Q04DX003 (ip), vehicle: Klucel (hydroxypropylcellulose) (HPC)) is 97 % of control.
`CN(O)C(=O)/C=C/c1ccccc1`: the T/C was 104 % of control (dose: 50.0 mg/kg/injection, schedule: Q01DX009 (ip), vehicle: distilled water + Tween-80); 104 % of control (dose: 100.0 mg/kg/injection, schedule: Q01DX009 (ip), vehicle: distilled water + Tween-80); 110 % of control (dose: 200.0 mg/kg/injection, schedule: Q01DX009 (ip), vehicle: distilled water + Tween-80).
`CCCCCCCCCCCCc1ccc(C[N+](C)(C)CC[N+](C)(C)Cc2ccc(CCCCCCCCCCCC)cc2)cc1`: under setting [4], the T/C was 104 % of control.
Turning to `CCCCCCCCCCCC1=C(O)C(=O)C(I)=C(O)C1=O`, the T/C runs as follows: under setting [10], 108 % of control; under setting [11], 100 % of control and 108 % of control; under setting [12], 108 % of control.
`CCOc1cc2c(NCCCN(CCO)CCO)ncnc2c(OCC)c1OCC`: the T/C by setting is: under setting [4], 101 % of control; under setting [5], 111 % of control; under setting [6], 101 % of control.
For the molecule `CCOc1cccc(/C=N/NC(=O)C(N)Cc2ccc(O)cc2)c1O` (configuration not stated), the T/C runs as follows: under setting [10], 99 % of control; under setting [11], 99 % of control; under setting [12], 99 % of control.
With `COCC(Cl)/C(N)=N\S(=O)(=O)c1c(C)cc(Cl)cc1Cl` (configuration not stated), the T/C is 101 % of control (dose: 60.0 mg/kg/injection, schedule: Q01DX005 (ip), vehicle: saline with Tween-80); 100 % of control (dose: 120.0 mg/kg/injection, schedule: Q01DX005 (ip), vehicle: saline with Tween-80); 96 % of control (dose: 240.0 mg/kg/injection, schedule: Q01DX005 (ip), vehicle: saline with Tween-80).
As to `CSc1nc(C)c(Br)c(N2CC2)n1`, the T/C runs as follows: (dose: 3.12 mg/kg/injection, schedule: Q01DX005 (ip), vehicle: Klucel (hydroxypropylcellulose) (HPC)) 89 % of control; (dose: 6.25 mg/kg/injection, schedule: Q01DX005 (ip), vehicle: Klucel (hydroxypropylcellulose) (HPC)) 110 % of control and 94 % of control; (dose: 12.5 mg/kg/injection, schedule: Q01DX005 (ip), vehicle: Klucel (hydroxypropylcellulose) (HPC)) 99 % of control and 110 % of control; under setting [13], 120 % of control and 89 % of control and 97 % of control; under setting [14], 101 % of control and 102 % of control; under setting [15], 105 % of control.
